≈ marks a conversion by molar mass, not a printed value. Calls of active or inactive are those of the source. The calls are words filed in the database; no cut-off is given here.
How the values were obtained:
[1] = target: T1, Growth hormone secretagogue receptor type 1 (Homo sapiens, UniProt Q92847); assay: Intrinsic activity at GSHR relative to human ghrelin; type: functional
[2] = target: T1, Growth hormone secretagogue receptor type 1; assay: Agonist activity at GSHR by FLIPR assay; type: functional
[3] = Half life in rat at 1 mg/kg, iv; type: ADME, organism-based; set-up: dose 1 mg/kg, route intravenous; conditions: in vivo
Liver microsomes [4] = assay: Metabolic stability in human liver microsomes; type: ADME, Microsome
[5] = Clearance in rat blood at 1 mg/kg, iv; type: ADME, organism-based; set-up: dose 1 mg/kg, route intravenous; conditions: in vivo
Liver microsomes [6] = assay: Metabolic stability in rat liver microsomes; type: ADME, Microsome
[7] = Volume of distribution in rat at 1 mg/kg, iv; type: ADME, organism-based; set-up: dose 1 mg/kg, route intravenous; conditions: in vivo, read-out: Vdss
[8] = Distribution coefficient, log D at pH 7.4; type: physicochemical; conditions: octanol/water
[9] = Cmax in rat at 1 mg/kg, iv; type: ADME, organism-based; set-up: dose 1 mg/kg, route intravenous; conditions: in vivo
[10] = target: Motilin receptor (Homo sapiens) (UniProt O43193); assay: Activity at motilin GPR38 receptor
Motilin receptor (Homo sapiens), sequence (O43193 whole entry): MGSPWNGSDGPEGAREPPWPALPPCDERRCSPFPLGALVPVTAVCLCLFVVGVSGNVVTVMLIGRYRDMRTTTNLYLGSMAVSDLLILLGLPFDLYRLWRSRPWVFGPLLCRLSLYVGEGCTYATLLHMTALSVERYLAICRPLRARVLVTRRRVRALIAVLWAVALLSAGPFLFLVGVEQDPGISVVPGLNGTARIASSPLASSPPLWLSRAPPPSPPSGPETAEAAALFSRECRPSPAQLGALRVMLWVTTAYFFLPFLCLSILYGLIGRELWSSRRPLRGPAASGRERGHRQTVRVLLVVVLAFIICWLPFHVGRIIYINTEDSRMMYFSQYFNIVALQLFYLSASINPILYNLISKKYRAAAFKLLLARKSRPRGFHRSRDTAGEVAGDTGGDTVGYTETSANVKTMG

[11] = Aqueous solubility at pH 7.4; type: physicochemical
Rattus norvegicus = assay: Increase in gastric emptying in sc dosed rat; type: functional; conditions: Stomach
[12] = target: 5-hydroxytryptamine receptor 1B (Homo sapiens, UniProt P28222); assay: Binding affinity at 5HT1B receptor
5-hydroxytryptamine receptor 1B, sequence (P28222 whole entry): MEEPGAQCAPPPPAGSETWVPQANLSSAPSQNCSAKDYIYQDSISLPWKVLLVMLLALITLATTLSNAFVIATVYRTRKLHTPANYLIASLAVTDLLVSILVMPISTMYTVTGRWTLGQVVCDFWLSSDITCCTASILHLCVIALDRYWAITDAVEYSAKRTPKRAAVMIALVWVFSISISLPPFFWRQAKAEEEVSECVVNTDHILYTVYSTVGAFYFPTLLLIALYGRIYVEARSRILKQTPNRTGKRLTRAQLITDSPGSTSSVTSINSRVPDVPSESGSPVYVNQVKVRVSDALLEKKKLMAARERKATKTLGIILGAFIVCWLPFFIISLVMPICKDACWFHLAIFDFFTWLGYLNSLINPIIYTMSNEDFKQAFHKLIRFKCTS

T1 sequence (Q92847 whole entry): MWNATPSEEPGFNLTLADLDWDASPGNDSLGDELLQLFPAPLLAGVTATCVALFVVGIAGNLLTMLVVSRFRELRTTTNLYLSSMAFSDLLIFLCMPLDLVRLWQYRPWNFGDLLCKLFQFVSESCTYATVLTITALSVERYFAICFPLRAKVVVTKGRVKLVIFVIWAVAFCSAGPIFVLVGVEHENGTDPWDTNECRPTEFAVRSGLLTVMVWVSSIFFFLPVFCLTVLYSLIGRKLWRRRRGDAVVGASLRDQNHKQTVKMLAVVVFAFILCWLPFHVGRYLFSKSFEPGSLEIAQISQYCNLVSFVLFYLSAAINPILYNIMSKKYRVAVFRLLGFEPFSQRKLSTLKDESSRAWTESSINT

Row | Intrinsic activity [1] | EC50 [2] | Compound | further results
1 | 1.1 | 0.2 nM | COc1cc2c(cc1N1C[C@@H](C)N[C@@H](C)C1)N(S(=O)(=O)c1ccc(-c3ccccn3)cc1)CC2 | 
2 | 1 | 0.501 nM | COc1cc2c(cc1N1C[C@@H](C)N[C@@H](C)C1)N(S(=O)(=O)c1ccc3ccccc3c1)CC2 | 
3 | 0.9 | 5.01 nM | COc1cc2c(cc1N1C[C@@H](C)N[C@@H](C)C1)N(S(=O)(=O)CCc1ccccc1Cl)CC2 | 
4 | 1 | 3.16 nM | COc1cc2c(cc1N1CCN[C@@H](C)C1)N(S(=O)(=O)c1ccc(-c3ccccn3)s1)CC2 | 
5 | 0.9 | 20 nM | COc1cc2c(cc1N1C[C@@H](C)N[C@@H](C)C1)N(S(=O)(=O)c1cccc(-c3ccccn3)c1)CC2 | 
6 | 0.9 | 0.158 nM | COc1cc2c(cc1N1C[C@@H](C)N[C@@H](C)C1)N(S(=O)(=O)c1ccc(-c3ccccn3)s1)CC2 | half-life [3]: 2.3 h; Stability (Liver microsomes [4]): 4.5 mL/min/g; Clearance blood [5]: 64 mL/min/kg; Stability (Liver microsomes [6]): 2.6 mL/min/g; Vd [7]: 8.8 L/kg; logD [8]: 1.8; Cmax [9]: 250 nM; Activity [10]: inactive; solubility [11]: 168 µg/mL (≈ 347 µM); ED50 (Rattus norvegicus): 0.1 mg/kg
7 | 0.9 | 2.51 nM | COc1cc2c(cc1N1C[C@@H](C)N[C@@H](C)C1)N(S(=O)(=O)c1ccc(-c3ccon3)s1)CC2 | 
8 | 0.8 | 63.1 nM | COc1cc2c(cc1N1CCNCC1)N(S(=O)(=O)c1ccc(-c3ccccn3)s1)CC2 | 
9 | 0.8 | 10 nM | COc1cc2c(cc1N1C[C@@H](C)NC(C)(C)C1)N(S(=O)(=O)c1ccc(-c3ccccn3)s1)CC2 | 
10 | 1 | 0.794 nM | COc1cc2c(cc1N1C[C@H](C)NC(C)(C)C1)N(S(=O)(=O)c1ccc(-c3ccccn3)s1)CC2 | 
11 | 0.8 | 39.8 nM | COc1cc2c(cc1N1C[C@@H](C)N(C)[C@@H](C)C1)N(S(=O)(=O)c1ccc3ccccc3c1)CC2 | 
12 | 0.7 | 158 nM | CCOc1ccc(CC(=O)N2CCc3cc(OC)c(N4C[C@@H](C)N(C)[C@@H](C)C4)cc32)cc1Cl | Ki [12]: 12.6 nM
13 | 0.9 | 15.8 nM | COc1cc2c(cc1N1CCNC(C)(C)C1)N(S(=O)(=O)c1ccc(-c3ccccn3)s1)CC2 | 
14 | 0.7 | 126 nM | COc1cc2c(cc1N1C[C@@H](C)N(C)[C@@H](C)C1)N(S(=O)(=O)c1cccc(Br)c1)CC2 | Ki [12]: 2000 nM
15 | 0.8 | 31.6 nM | COc1cc2c(cc1N1C[C@@H](C)N[C@@H](C)C1)N(S(=O)(=O)Cc1cccc(I)c1)CC2 | 
16 | 1 | 3.98 nM | COc1cc2c(cc1N1CCN[C@H](C)C1)N(S(=O)(=O)c1ccc(-c3ccccn3)s1)CC2 | 

From ChEMBL document CHEMBL1140573, “Potent achiral agonists of the ghrelin (growth hormone secretagogue) receptor. Part I: Lead identification” (Bioorg Med Chem Lett, 2007)
